SMILES strings stand for the structures. Some results are limits rather than exact numbers.

The subject of this test is platelet aggregation. The experiment in a line: Platelet aggregation-inhibiting action (TAI), collagen-induced, turbidometric, in platelet-rich citrate plasma. The class given is cell-based. The note with it: Homo sapiens, 0.1 h, range of the minimum effective concentration, PRP from healthy donors, 37° C., 6 minutes, read-out: TAI threshold concentration. The procedure:
Blood from healthy donors of both sexes was used for the determination of the platelet aggregation-inhibiting action. As an anticoagulant, 9 parts of blood were admixed to one part of 3.8% strength aqueous sodium citrate solution. Platelet-rich citrate plasma (PRP)^1 is obtained from this blood by means of centrifugation (Jurgens/Beller, Klinische Methoden der Blutgerinnungsanalyse (Clinical Methods of Blood Coagulation Analysis); Thieme Verlag, Stuttgart, 1959).
For these investigations, 0.8 ml of (PRP)^1 and 0.1 ml of the active compound solution were preincubated in a water bath at 37° C. The platelet aggregation was then determined by the turbidometric method (Born, G.V.R., J. Physiol. (London), 162, 67, 1962) in an aggregometer at 37° C. (Therapeutische Berichte 47, 80-86, 1975). To this end, 0.1 ml of collagen, an aggregation-inducing agent, was added to the preincubated sample. The change in the optical density in the sample of the (PRP) was recorded during a period of 6 minutes and the result was determined after 6 minutes. To do this, the percentage inhibition was calculated compared to the control.
The range of the minimum effective concentration was given as the threshold concentration.
On to `O=C(O)CCCCC=C(c1cccnc1)c1cccc(NS(=O)(=O)c2ccc(Cl)cc2)c1` (mixture of isomers) [Example XV], for which the minimal effective concentration was in the range of 3 to 10 µg/mL.
For the compound `O=C(O)CCCCCON=C(c1cccnc1)c1cccc(NS(=O)(=O)c2ccc(Cl)cc2)c1` [XII], the minimal effective concentration is 1 to 3 µg/mL.
As for `O=C(O)CCCCON=C(c1cccnc1)c1cccc(NS(=O)(=O)c2ccc(F)cc2)c1` [II], the minimal effective concentration was 1 to 3 µg/mL.
To `O=C(O)CCCCCCON=C(c1cccnc1)c1cccc(NS(=O)(=O)c2ccc(Cl)cc2)c1` (mixture of isomers) [XIII, (E/Z)-7-[[[3-Pyridinyl-3-(4-chlorophenylsulphonamido)phenyl]methylene]iminooxy]heptane-carboxylic acid] belongs greater than 10 µg/mL; to `O=C(O)CCCCCC(c1cccnc1)c1cccc(NS(=O)(=O)c2ccc(Cl)cc2)c1` (stereo not drawn) [XXVI], 0.1 to 0.3 µg/mL; to `O=C(O)CCCCON=C(c1cccnc1)c1cccc(NS(=O)(=O)c2ccc(Cl)cc2)c1` (mixture of isomers) [Example I, (E/Z)-5-[[[3-Pyridinyl-3-(4-chlorophenylsulphonamido)phenyl]methylene]iminooxy]pentanecarboxylic acid], 0.3 to 1 µg/mL.

The values are drawn from US5155121A, “Phenylsulphonamide substituted pyridinealkene- and aminooxyalkanecarboxylic acid derivatives” (Bayer Aktiengesellschaft, priority 1990, dated 1992).
